Measured values from patent US20220306603A1, “TARGETING DNA REPAIR IN TUMOR CELLS VIA INHIBITION OF ERCC1-XPF” (The Governors of the University of Alberta, priority 2019, published 2022).
“Also recorded” adds a separate entry of the source.

How the values were obtained:
[1] = biological target: T1, ERCC1-XPF complex (Homo sapiens, UniProt Q92889); experiment: Steady-state intrinsic tryptophan fluorescence quenching binding assay; details: 2 μM compound; excitation 295 nm
T1 construct: His6; made in house; host or cells: E. coli BL21 (DE3)
T1 sequence (Q92889 1-916): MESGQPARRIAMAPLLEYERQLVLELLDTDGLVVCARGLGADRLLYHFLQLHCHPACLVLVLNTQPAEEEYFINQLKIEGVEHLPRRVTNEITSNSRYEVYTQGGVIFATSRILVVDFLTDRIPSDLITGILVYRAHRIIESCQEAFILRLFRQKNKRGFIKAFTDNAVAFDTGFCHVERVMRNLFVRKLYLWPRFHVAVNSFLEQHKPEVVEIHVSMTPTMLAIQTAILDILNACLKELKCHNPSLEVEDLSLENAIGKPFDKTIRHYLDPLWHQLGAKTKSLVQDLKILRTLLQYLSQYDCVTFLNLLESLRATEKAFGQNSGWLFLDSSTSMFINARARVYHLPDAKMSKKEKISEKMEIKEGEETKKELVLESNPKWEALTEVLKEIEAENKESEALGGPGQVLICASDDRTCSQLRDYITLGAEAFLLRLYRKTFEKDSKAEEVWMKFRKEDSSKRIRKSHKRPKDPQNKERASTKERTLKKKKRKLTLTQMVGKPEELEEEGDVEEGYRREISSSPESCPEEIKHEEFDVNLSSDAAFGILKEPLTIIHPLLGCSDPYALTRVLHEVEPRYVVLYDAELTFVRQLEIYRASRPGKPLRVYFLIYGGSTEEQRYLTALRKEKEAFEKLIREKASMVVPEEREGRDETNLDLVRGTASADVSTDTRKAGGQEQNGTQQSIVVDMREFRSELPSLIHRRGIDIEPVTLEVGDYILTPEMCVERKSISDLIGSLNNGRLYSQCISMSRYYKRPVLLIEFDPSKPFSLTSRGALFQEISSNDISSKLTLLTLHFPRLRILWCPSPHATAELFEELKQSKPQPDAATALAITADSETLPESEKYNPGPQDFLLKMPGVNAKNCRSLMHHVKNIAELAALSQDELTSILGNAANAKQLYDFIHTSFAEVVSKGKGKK
Protocol: Steady-state fluorescence spectra were measured at room temperature on a Perkin-Elmer LS-55 spectrofluorometer (Freemont, Calif.) with 5 nm spectral resolution for excitation and emission using 30-80 nM solution of purified recombinant ERCC1-XPF protein complex. […] In studying the effects of inhibitors on protein fluorescence intensities, additions to protein samples were made from inhibitors stock solutions, keeping the protein dilution below 3%.

[2] = tested on: HCT116 cells; experiment: Cellular repair of UV-induced cyclobutane pyrimidine dimers (immunofluorescence); type: cell-based, human
Protocol: Protocol of Mirzayans et al. was followed with minor modifications (30). Approximately 1×10^5 HCT116 cells were seeded on each coverslip and allowed to attach overnight. Medium was then removed and cells were treated for one hour with the desired compound. The medium was removed, and cells were exposed to 8 J/m^2 UV-C radiation (G15T8 254 nm lamp, Ushio America Inc, Cypress, Calif.) followed by adding fresh medium containing the compound. Plates were incubated at 37° C. for different periods of time up to 24 hours and fixed in 50:50 methanol/1× phosphate-buffered saline (PBS) solution, followed by replacing the methanol/PBS solution with 100% methanol and incubation in −20° C. After 20 minutes, methanol was removed, and cells were treated with PBS for 5 minutes in room temperature. After fixing, cells were permeabilized in 0.5% Triton/PBS and washed with PBS, denatured in 2 N HCl, and neutralized by twice washing with 0.1 M borate buffer pH 8.5. Cells on cover slips were washed once with PBS followed by blocking with 5% non-fat dry milk/PBS for 30 minutes. Mouse anti-thymine dimer monoclonal antibody (Cat. No. MC-062, Kamiya Biomedical Company, Seattle, Wash.) was applied to the cover slips for one hour in the dark and at room temperature. Cells were then washed with PBS containing 0.1% Tween-20 and incubated with rabbit anti-mouse IgG-Alexafluor antibody (Invitrogen, Carlsbad, Calif.) followed by two washes with PBS/(0.1%)Tween-20. Cells on coverslips were then washed with PBS, rinsed with water, and mounted on slides using DAPI glycerol mounting solution. Slides were kept at 4° C. before fluorescent microscopic evaluation and measurement of fluorescence intensity with MetaXpress Version: 6.2.1.704 software (Molecular Devices, Sunnyvale, Calif.).
To test for inhibition of nucleotide excision repair, we monitored the cellular removal of UVC-induced cyclobutane pyrimidine dimers (CPDs) in HCT116 cells over a 24-hour period using an immunochemical assay.

[3] = tested on: HCT116 cells; experiment: Clonogenic survival assay, UV treatment; type: cell-based, human; details: 254 nm UV 0-10 J/m^2; compound 0.5-4 μM
Protocol: UV treatment: HCT116 cells (100-800 cells depending on the UV dose) were plated in triplicate in 60-mm petri dishes. The cells were incubated overnight at 37° C. in a humidified atmosphere containing 5% CO2 to allow for cell attachment. […] Medium was removed again, and cells were exposed to increasing doses (0-10 J/m^2) of UV-C radiation and then incubated for a further 10 days in the presence of inhibitor at 37° C. in a 5% CO2 atmosphere to allow for colony formation. After this period plates were stained with crystal violet and colonies were counted using a Colcount instrument (Oxford Optronix, Abingdon UK). Finally, plating efficiency and surviving fraction were calculated.

[4] = biological target: T2, truncated ERCC1 (dERCC1) and XPF (dXPF) dimer (Homo sapiens, UniProt Q92889); experiment: Micro Scale Thermophoresis of truncated ERCC1-XPF; type: binding; details: truncated dimer compared to individual peptides
T2 construct: XPF (dXPF, codons 667-916); made in house
T2 sequence (Q92889 667-916): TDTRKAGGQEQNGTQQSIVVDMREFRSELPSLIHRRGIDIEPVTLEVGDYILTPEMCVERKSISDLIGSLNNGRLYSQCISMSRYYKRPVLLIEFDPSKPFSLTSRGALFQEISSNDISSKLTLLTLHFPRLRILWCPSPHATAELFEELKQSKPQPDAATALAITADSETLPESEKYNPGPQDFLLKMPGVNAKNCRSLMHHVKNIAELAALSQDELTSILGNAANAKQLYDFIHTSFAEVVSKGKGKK
Text: MST allows for the detection of interactions and changes in the molecular properties of biomolecules at low nanomolar concentrations. We synthesized two human recombinant truncated forms of ERCC1 (dERCC1, codons 96-297) and XPF (dXPF, codons 667-916) for this study because these peptides contain the subunit interaction domains that the inhibitor was designed to disrupt.

## COc1ccc2nc3cc(Cl)ccc3c(Nc3ccc(O)c(CN4CCN(CCN(C)C)CC4)c3)c2c1 [Compound A4, 4-((6-Chloro-2-methoxyacridin-9-yl)amino)-2-((4-(2-(dimethylamino)ethyl)piperazin-1-yl)methyl) phenol]
[1]
  quenching of protein fluorescence at 330 nm: ~23±2%
[2]; 8 J/m^2 UV-C, up to 24 h post-irradiation
  inhibition of cellular removal of CPDs / thymidine dimers (in words): significantly different; also recorded: significant inhibition of removal of CPDs
[2]; 8 J/m^2 UV, control approximately 80%
  CPDs removed over 24 hours after UV exposure: approximately 60%
[3]
  sensitisation to UV radiation, clonogenic survival (in words): significantly reduced survival
[4]
  change in thermophoresis properties (in words): induced a larger change in the thermophoresis properties of the truncated dimer
